Laboratory results from patent publication US20110294734A1, “PHARMACEUTICAL COMPOSITIONS COMPRISING TGF-BETA 1 INHIBITOR PEPTIDES” (DIGNA BIOTECH, S.L., priority 2009, published 2011).
Where two headings read alike, the source gives them in different places. No end group written: not given here.

Assay: Solubility study of P144
Assay type: physicochemical

- Solubility (Dicloromethane (DCM)): insoluble
- Solubility (Dimethyl sulfoxide (DMSO)): very soluble
- Solubility (Dimethylformamide (DMF)): insoluble
- Solubility (Ethanol): insoluble
- Solubility (Gantrez ® S97 2-5%): insoluble
- Solubility (Glycerol): insoluble
- Solubility (Hexane): insoluble
- Solubility (Human albumin 20%, read-out: Solubility): 250 µg/mL
- Solubility (Hydroxy-propyl-β-cyclodextrin 5%, read-out: Solubility): 250 µg/mL
- Solubility (PEG 400): insoluble
- Solubility (PLASDONE 5%): insoluble
- Solubility (Pluronic F68 (1-10%)): insoluble
- Solubility (Proplylene glycol): insoluble
- Solubility (Sodium deoxycholate 5%): insoluble
- Solubility (Tetrahydrofurane (THF)): insoluble
- Solubility (Urea 10%, read-out: Solubility): 250 µg/mL
- Solubility (distilled water): insoluble
Sequence: TSLDASIIWAMMQN [Formula P144, TSLDASIIWAMMQN]
